pIC50: −log10 of the molar value.
Columns and labels:
human CYP4V2 = human CYP4V2 (Homo sapiens (Human), UniProt Q6ZWL3); test: CYP4V2 selectivity test; type: biochemical; conditions: cell membrane fraction expressing human CYP4V2, 7 μM luciferine derivative, 40 minutes
Experimental: (3) CYP4V2 Selectivity Test for Each Compound of the Present Invention
(§1) The reaction solution containing each compound [final concentration of 100 mM KPO4 (pH 7.4), 7 μM luciferine derivative, and 1 mM NADPH] was added to a cell membrane fraction (38 μg/mL protein) in which human CYP4V2 had been expressed. Following this, the cell membrane fraction was left to stand at room temperature for 40 minutes to perform an enzymatic reaction. After the reaction, a luciferine detection reagent was added, and the luminescence value was measured using a plate reader. By using that value, the percent inhibition of the enzymatic reaction of CYP4V2(%) was calculated according to the equation described below, and the 50% inhibitory concentration (IC50 value) for each compound was calculated. Percent inhibition of CYP4V2 enzyme (%)=[1−(A−B)/(C−B)]*100
(§2) A: Luminescence value with addition of compound
(§3) B: Luminescence value without addition of compound and enzyme
(§4) C: Luminescence value without addition of compound

human CYP4F2 = human CYP4F2 (Homo sapiens (Human), UniProt P78329); test: Inhibition test against 20-HETE producing enzyme CYP4F2 (luciferine derivative, luminescence); type: biochemical
Method in brief: (§5)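 E. coli membranes (100 μg/mL protein) expressing human enzyme, room temperature 60 min, luciferin-derivative luminescence; IC50 from % inhibition. CYP4F2: 50 mM KPO4 pH 7.4, 2.5 μM substrate, 1 mM NADPH. CYP4A11: 100 mM Tris-HCl pH 7.5, 60 μM substrate, NADP+/glucose 6-phosphate/G6PDH regenerating system, 3.3 mM MgCl2.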

[1] = target: 20-HETE producing enzymes, human kidney microsome; test: Inhibition test against 20-HETE producing enzymes using human kidney microsomes (LC-MS/MS); type: biochemical; conditions: for pIC50: human kidney microsome 250 μg/mL protein, 20 μM arachidonic acid, 37° C. 45 minutes, LC-MS/MS
Experimental: (1) Inhibition Test for Each Compound of the Present Invention Against 20-HETE Producing Enzymes Using Human Kidney Microsomes
The reaction solution containing each compound [final concentration of 100 mM, KPO4 (pH 7.4), 20 μM Arachidonic acid, 4 mM NADPH] was added to the human kidney microsome (250 μg/mL protein). Following this, the microsome was left to stand at 37° C. for 45 minutes to perform 20-HETE producing reaction. After adding formic acid to stop the reaction, 9 times amount of acetonitrile was added, and deproteinization was carried out by centrifugation (1000 rpm, 4° C., 10 minutes). After that, the peak area value of 20-HETE was measured using a liquid chromatograph-tandem mass spectrometer (LC-MS/MS), and by using that value, the percent inhibition of 20-HETE producing enzyme (%) was calculated according to the equation described below, and the 50% inhibitory concentration (IC50 value) for each compound was calculated. Percent inhibition of 20-HETE producing enzyme (%)=[1−(A−B)/(C−B)]*100
A: Peak area value of 20-HETE/peak area value of internal standard substance with addition of compound
B: Peak area value of 20-HETE/peak area value of internal standard substance without addition of compound and NADPH
C: Peak area value of 20-HETE/peak area value of internal standard substance without addition of compound
(3) Inhibition Test for Compound a and Compound B Disclosed in WO03/022821 Against 20-HETE Producing Enzymes Using Human Kidney Microsomes
For compound A and compound B disclosed in WO03/022821, which have been described above, the 50% inhibitory concentration (IC50 value) against 20-HETE producing enzymes was calculated according to the method described in Test Example 2.
On the other hand, as described above, in Test Example 2, nonradioactive arachidonic acid was used as a substrate for 20-HETE producing reaction, and the amount of 20-HETE produced was measured using LC-MS/MS. In this case, the concentration of arachidonic acid, the substrate, is 20 μM.
In recent years, it is recommended that the substrate concentration for calculating the IC50 value be set at the Km value (Assay Guidance Manual, Sittampalam et. al. (URL: http://www.ncbi.nlm.nih.gov/books/NBK53196/)). According to this, in Test Example 2 described above, human kidney microsomes were used to calculate the Km value, and the calculated Km value of 20 μM was set as the concentration of the substrate, arachidonic acid.

human CYP4F22 = human CYP4F22 (Homo sapiens (Human), UniProt Q6NT55); test: CYP4F22 selectivity test; type: biochemical; conditions: cell membrane fraction expressing human CYP4F22, 14 μM luciferine derivative, 50 minutes
Experimental: (1) CYP4F22 Selectivity Test for Each Compound of the Present Invention
as §1, with “7.4), 14” for “7.4), 7”, “fraction (30” for “fraction (38”, “human CYP4F22” for “human CYP4V2”, “for 50” for “for 40”, “of CYP4F22(%)” for “of CYP4V2(%)”, “of CYP4F22” for “of CYP4V2”
as §2, §3, §4

[2] = Evaluation test for in vivo stability (half-life in plasma after intravenous administration to rats); design: species or system rats (Sprague-Dawley); conditions: rats (SD, male), 0.5 mg/kg, half-life in plasma from CL and Vdss
Experimental: (1) Evaluation Test for In Vivo Stability of Each Compound of the Present Invention
Each compound was dissolved in an aqueous solution of 10% HP-β-CD (0.5 mg/mL), and intravenously administered to rats (Sprague-Dawley (SD), male, 7-week-old, fasted, dose: 0.5 mg/kg). Blood was collected from the tail vein at each time of blood collection, and the plasma was collected by centrifugation. Quantitative analysis of each compound in plasma was performed using LC-MS/MS. Half-life in plasma (t1/2eff) was calculated from clearance (CL) and distribution volume (Vdss) calculated through noncompartmental analysis with Phoenix WinNonlin (Certara, L.P.), according to the equation described below. t1/2eff=LN(2)/(CL/Vdss)

human CYP4A11 = human CYP4A11 (Homo sapiens (Human), UniProt Q02928); test: Inhibition test against 20-HETE producing enzyme CYP4A11 (luciferine derivative, luminescence); type: biochemical
Method in brief: as §5

[3] = human CYP4F2, luciferine derivative, luminescence
[4] = human CYP4A11, luciferine derivative, luminescence

Sequence of human CYP4F22 (Q6NT55 whole entry): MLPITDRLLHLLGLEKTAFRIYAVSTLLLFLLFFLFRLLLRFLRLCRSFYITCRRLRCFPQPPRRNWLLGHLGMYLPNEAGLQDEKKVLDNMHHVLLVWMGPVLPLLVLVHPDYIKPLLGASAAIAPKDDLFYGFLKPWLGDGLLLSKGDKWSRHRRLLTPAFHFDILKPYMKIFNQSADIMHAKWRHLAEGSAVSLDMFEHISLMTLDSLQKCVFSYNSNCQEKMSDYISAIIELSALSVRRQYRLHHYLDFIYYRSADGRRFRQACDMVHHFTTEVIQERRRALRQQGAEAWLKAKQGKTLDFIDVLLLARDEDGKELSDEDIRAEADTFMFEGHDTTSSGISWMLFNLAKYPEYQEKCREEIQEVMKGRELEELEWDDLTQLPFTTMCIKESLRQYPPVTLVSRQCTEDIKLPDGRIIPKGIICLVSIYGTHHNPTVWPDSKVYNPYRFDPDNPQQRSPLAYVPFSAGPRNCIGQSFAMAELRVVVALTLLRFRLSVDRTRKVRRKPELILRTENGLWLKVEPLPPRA
Sequence of human CYP4A11 (Q02928 5-519): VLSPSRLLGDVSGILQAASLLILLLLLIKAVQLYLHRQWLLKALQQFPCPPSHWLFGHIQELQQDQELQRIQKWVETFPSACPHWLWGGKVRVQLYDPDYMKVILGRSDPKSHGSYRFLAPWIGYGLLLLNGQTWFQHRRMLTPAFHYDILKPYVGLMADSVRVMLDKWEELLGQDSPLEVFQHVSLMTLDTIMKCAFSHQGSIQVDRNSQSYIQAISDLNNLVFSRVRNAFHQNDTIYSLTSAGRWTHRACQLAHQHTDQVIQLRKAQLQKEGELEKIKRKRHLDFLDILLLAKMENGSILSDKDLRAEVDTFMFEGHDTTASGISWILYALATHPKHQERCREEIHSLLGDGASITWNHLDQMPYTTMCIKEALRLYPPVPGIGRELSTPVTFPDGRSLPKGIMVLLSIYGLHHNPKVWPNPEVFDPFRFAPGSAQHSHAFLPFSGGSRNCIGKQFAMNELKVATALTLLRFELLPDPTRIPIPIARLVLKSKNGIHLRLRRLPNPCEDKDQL
Sequence of human CYP4V2 (Q6ZWL3 whole entry): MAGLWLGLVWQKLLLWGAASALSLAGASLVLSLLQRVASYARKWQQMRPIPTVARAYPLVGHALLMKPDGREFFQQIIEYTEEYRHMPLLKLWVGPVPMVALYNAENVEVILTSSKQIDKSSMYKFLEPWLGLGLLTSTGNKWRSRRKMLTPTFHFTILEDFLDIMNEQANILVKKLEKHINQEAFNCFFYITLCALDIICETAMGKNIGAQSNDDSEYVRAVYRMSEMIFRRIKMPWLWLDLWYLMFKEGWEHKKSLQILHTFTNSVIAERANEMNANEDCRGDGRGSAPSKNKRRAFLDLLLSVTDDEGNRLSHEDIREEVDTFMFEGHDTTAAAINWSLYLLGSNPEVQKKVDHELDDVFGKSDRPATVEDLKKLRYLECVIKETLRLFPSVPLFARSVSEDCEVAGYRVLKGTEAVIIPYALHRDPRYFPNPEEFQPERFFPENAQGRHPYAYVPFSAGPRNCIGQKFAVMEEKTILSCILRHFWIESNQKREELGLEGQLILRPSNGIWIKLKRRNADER
Sequence of human CYP4F2 (P78329 5-520): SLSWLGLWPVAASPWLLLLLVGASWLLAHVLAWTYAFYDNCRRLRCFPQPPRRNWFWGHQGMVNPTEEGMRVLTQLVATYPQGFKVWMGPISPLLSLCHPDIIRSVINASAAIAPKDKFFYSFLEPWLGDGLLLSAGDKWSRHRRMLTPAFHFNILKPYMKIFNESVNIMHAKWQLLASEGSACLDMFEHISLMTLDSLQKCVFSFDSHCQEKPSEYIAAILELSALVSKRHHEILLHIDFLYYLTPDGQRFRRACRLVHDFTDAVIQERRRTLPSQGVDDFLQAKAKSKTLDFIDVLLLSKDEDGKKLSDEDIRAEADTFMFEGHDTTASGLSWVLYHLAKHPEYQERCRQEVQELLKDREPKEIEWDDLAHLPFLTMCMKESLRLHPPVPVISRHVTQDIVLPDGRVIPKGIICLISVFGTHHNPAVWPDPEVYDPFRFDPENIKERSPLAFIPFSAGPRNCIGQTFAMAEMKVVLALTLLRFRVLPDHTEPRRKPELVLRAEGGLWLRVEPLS

Row | SMILES | pIC50 (human CYP4V2) | pIC50 (human CYP4F2; [3]) | pIC50 [1] | pIC50 (human CYP4F22) | t1/2eff [2] [h] | pIC50 (human CYP4A11; [4]) | pIC50 (human CYP4F2; E. coli membrane fraction expressing human CYP4F2, 2.5 μM luciferine derivative, room temperature 60 minutes) | inhibitory activities against 20-HETE producing enzymes compared to compound A and compound B ([1]; comparison with compound A and compound B of WO03/022821, human kidney microsomes) | pIC50 (human CYP4A11; E. coli membrane fraction expressing human CYP4A11, 60 μM luciferine derivative, room temperature 60 minutes)
1 | O=C(O)C1(CCCCCCCCOc2ccc(-c3ccn[nH]3)nc2)COC1 [Example 72-3] | 5.82 | 7.37 | 8.40 | 5.42 | 1.4 | 6.89 | – | – | –
2 | O=C(O)[C@H]1C[C@@H]1c1cccc(CCOc2ccc(-c3ccn[nH]3)nc2)c1F [Example 74-4] | 5.64 | 7.24 | 8.36 | 6.32 | 3.5 | 7.09 | – | – | –
3 | O=C(O)C1CC1c1cccc(COc2ccc(-c3ccn[nH]3)nc2)c1F (single isomer, unassigned) [Example 71-46] | 6.21 | 6.62 | 7.92 | 5.89 | 3.6 | 7.72 | – | – | –
4 | O=C(O)C1(OCCCCCCCOc2ccc(-c3ccn[nH]3)nc2)CCC1 [Example 72-2] | 6.29 | 7.01 | 8.33 | 5.60 | 2.4 | 6.92 | – | – | –
5 | CC(C)(OCCCCCCCOc1ccc(-c2ccn[nH]2)nc1)C(=O)O [Example 15-1, 2-Methyl-2-[7-[[6-(1H-pyrazol-5-yl)-3-pyridinyl]oxy]heptoxy]propanoic Acid] | 6.00 | – | 7.74 | 5.54 | 2.4 | – | 6.66 | stronger inhibitory activities | 6.92
